{"source": "patent US10434225B2", "about": "“Para-xylene films and therapeutic uses thereof” (NORTHWESTERN UNIVERSITY, priority 2013, dated 2019)", "system": "Interleukin-6 (IL-6)", "assay": "IL-6 gene expression by real-time PCR in macrophages on surfaces", "format": "cell-based, murine", "conditions": "RAW264.7 macrophages, LPS stimulated (+), DEX added to Control or integrated into PPX film", "method": "In-vitro analysis and drug release was completed through deposition of PPX on varying culture plates. Surface treatment of prepared PPX culture plates either had plasma oxidation (Oxd) or lack thereof resulting in hydrophilic or hydrophobic surfaces (native form). RAW264.7 macrophages and NIH-3T3 fibroblasts were analyzed on varying surfaces to determine in-vitro response. Cells were kept in DMEM media supplemented with 10% FBS and 1% Pen/Strep in humidified atmosphere with 5% CO^2. Cellular analysis was completed through the application of time lapse bright field imaging in addition to multiple cellular assays examining viability (MTT, Roche Diagnostics), proliferation (CyQUANT, Life Technologies) and adhesion (Vybrant, Molecular Probes) onto polystyrene, representing baseline biocompatible control surfaces, and various PPX surfaces. RNA isolation was accomplished utilizing TRIzol reagent (Invitrogen Corporation, Carlsbad, Calif.) per the manufacturer's guidelines. cDNA was synthesized using the iScript Select cDNA Synthesis Kit (Quanta Biosciences, Gaithersburg, Md.). PCR was done using SYBER Green detection reagents (Quanta Biosciences, Gaithersburg, Md.) and appropriate primers for IL-6 and β-Actin (Integrated DNA Technologies, Coralville, Iowa). Samples were amplified using a MyiQ real-time PCR detection system (Bio-Rad).", "data": [{"smiles": "C[C@@H]1C[C@H]2[C@@H]3CCC4=CC(=O)C=C[C@]4(C)[C@@]3(F)[C@@H](O)C[C@]2(C)[C@@]1(O)C(=O)CO", "note": "[DEX, dexamethasone]", "values": [{"measurement": "IL-6 expression, LPS stimulation (+) with DEX", "value": "217.4±54.0"}]}]}
